Source: article PMC8799717, “Pharmacological targeting PIKfyve and tubulin as an effective treatment strategy for double-hit lymphoma” (Cell Death Discovery, 2022)

What was measured:
Experiment in all cases: biochemical
Parameters in all cases: KINOMEscan active-site-directed competition binding panel, 468 kinases, percent of DMSO control at 1 uM
Details in all cases: KINOMEscan binding, percent of DMSO control; read-out: Ctrl%
[1] = molecular target: T1, ABL1(F317I)-phosphorylated (Homo sapiens, UniProt P00519, F317I)
T1 construct: phosphorylated

ANKK1 = ANKK1 (Homo sapiens, UniProt Q8NFD2)
AXL = AXL (Homo sapiens, UniProt P30530)
CAMK1 = CAMK1 (Homo sapiens, UniProt Q14012)
CAMKK1 = CAMKK1 (Homo sapiens, UniProt Q8N5S9)
CIT = CIT (Homo sapiens, UniProt O14578)
CLK1 = CLK1 (Homo sapiens, UniProt P49759)
CSNK2A1 = CSNK2A1 (Homo sapiens, UniProt P68400)
FER = FER (Homo sapiens, UniProt P16591)
FGFR1 = FGFR1 (Homo sapiens, UniProt P11362)
IRAK4 = IRAK4 (Homo sapiens, UniProt Q9NWZ3)
JNK3 = molecular target: T2, JNK3 (Homo sapiens, UniProt P53779)
T2 construct: gene MAPK10

MST2 = molecular target: T3, MST2 (Homo sapiens, UniProt Q13188)
T3 construct: gene STK3

NDR2 = molecular target: T4, NDR2 (Homo sapiens, UniProt Q9Y2H1)
T4 construct: gene STK38L

NEK1 = NEK1 (Homo sapiens, UniProt Q96PY6)
PDPK1 = PDPK1 (Homo sapiens, UniProt O15530)
PKN1 = PKN1 (Homo sapiens, UniProt Q16512)
PKN2 = PKN2 (Homo sapiens, UniProt Q16513)
TAK1 = molecular target: T5, TAK1 (Homo sapiens, UniProt O43318)
T5 construct: gene MAP3K7

TAOK3 = TAOK3 (Homo sapiens, UniProt Q9H2K8)
TIE2 = molecular target: T6, TIE2 (Homo sapiens, UniProt Q02763)
T6 construct: gene TEK

TNK1 = TNK1 (Homo sapiens, UniProt Q13470)
TRKA = molecular target: T7, TRKA (Homo sapiens, UniProt P04629)
T7 construct: gene NTRK1

WEE1 = WEE1 (Homo sapiens, UniProt P30291)

NEK1, sequence (Q96PY6 whole entry): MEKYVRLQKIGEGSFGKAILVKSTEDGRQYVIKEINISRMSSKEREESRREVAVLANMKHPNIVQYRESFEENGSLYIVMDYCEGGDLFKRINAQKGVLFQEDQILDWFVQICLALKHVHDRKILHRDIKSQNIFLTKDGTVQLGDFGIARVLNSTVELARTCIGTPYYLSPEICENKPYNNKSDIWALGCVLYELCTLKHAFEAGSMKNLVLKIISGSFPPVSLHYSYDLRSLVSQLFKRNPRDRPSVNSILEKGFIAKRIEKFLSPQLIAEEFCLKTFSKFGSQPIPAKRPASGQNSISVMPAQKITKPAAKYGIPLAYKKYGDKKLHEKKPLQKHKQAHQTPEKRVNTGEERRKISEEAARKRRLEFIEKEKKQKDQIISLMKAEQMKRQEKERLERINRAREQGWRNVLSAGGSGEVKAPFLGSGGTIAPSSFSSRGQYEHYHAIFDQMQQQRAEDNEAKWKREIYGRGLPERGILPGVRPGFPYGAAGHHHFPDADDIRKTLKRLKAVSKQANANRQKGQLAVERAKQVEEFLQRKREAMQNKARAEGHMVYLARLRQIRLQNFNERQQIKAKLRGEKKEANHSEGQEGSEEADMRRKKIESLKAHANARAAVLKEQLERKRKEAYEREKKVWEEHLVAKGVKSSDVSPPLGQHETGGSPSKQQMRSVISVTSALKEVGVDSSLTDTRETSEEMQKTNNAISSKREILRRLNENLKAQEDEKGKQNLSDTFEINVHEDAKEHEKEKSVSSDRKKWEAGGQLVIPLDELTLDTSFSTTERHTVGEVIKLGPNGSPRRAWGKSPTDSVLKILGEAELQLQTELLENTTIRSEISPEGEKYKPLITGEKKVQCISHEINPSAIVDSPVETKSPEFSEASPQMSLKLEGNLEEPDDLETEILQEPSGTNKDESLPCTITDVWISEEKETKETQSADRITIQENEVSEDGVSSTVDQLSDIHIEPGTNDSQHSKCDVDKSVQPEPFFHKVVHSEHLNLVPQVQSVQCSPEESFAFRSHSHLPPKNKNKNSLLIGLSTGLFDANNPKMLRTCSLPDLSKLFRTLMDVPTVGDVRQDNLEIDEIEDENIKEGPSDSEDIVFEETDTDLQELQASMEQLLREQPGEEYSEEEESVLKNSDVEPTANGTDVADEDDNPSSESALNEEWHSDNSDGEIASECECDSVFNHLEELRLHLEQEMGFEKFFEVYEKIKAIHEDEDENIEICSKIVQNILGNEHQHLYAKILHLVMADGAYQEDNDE
T4 sequence (Q9Y2H1 whole entry): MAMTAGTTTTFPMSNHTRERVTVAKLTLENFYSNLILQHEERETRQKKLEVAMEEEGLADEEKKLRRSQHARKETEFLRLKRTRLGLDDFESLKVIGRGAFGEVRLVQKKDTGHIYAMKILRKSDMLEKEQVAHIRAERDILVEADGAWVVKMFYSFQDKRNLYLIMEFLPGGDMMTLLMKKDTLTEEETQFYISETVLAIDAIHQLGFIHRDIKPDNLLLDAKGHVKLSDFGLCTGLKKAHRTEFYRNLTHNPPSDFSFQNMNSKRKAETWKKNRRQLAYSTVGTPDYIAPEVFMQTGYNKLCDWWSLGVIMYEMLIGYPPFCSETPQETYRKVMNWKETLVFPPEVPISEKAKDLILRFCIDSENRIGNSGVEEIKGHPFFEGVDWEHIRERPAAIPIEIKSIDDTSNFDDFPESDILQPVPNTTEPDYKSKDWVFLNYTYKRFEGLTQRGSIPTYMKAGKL
CLK1, sequence (P49759 whole entry): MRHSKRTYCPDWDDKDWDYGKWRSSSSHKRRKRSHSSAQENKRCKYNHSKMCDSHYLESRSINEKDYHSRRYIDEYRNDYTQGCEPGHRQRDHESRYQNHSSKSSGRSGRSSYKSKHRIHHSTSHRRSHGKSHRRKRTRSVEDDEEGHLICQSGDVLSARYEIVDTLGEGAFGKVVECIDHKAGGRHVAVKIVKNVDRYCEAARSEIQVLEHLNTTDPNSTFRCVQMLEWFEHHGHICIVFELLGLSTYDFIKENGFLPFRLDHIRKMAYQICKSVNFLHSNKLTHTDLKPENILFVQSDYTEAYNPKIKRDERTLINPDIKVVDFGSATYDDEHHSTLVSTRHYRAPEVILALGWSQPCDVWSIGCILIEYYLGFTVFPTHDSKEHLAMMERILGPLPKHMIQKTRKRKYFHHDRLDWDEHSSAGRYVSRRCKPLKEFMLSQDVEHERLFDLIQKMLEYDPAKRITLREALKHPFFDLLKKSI
T5 sequence (O43318 whole entry): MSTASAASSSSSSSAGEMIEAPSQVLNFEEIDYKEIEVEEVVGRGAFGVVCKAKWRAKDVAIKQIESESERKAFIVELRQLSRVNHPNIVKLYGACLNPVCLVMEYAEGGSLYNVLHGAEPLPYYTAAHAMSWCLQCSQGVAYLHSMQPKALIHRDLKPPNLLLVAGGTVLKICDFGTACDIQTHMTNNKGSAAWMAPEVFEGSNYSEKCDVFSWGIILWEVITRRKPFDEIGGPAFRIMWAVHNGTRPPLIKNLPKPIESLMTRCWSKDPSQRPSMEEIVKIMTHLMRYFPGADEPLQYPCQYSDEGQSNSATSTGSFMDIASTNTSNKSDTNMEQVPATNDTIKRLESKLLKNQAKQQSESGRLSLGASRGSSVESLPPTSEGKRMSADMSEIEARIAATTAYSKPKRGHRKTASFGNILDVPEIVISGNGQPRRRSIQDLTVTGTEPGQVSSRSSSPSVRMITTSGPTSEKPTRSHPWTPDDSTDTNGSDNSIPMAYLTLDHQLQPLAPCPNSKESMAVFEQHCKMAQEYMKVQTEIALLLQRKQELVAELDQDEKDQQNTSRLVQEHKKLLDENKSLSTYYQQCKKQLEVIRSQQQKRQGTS
T1 sequence (P00519 whole entry F317I): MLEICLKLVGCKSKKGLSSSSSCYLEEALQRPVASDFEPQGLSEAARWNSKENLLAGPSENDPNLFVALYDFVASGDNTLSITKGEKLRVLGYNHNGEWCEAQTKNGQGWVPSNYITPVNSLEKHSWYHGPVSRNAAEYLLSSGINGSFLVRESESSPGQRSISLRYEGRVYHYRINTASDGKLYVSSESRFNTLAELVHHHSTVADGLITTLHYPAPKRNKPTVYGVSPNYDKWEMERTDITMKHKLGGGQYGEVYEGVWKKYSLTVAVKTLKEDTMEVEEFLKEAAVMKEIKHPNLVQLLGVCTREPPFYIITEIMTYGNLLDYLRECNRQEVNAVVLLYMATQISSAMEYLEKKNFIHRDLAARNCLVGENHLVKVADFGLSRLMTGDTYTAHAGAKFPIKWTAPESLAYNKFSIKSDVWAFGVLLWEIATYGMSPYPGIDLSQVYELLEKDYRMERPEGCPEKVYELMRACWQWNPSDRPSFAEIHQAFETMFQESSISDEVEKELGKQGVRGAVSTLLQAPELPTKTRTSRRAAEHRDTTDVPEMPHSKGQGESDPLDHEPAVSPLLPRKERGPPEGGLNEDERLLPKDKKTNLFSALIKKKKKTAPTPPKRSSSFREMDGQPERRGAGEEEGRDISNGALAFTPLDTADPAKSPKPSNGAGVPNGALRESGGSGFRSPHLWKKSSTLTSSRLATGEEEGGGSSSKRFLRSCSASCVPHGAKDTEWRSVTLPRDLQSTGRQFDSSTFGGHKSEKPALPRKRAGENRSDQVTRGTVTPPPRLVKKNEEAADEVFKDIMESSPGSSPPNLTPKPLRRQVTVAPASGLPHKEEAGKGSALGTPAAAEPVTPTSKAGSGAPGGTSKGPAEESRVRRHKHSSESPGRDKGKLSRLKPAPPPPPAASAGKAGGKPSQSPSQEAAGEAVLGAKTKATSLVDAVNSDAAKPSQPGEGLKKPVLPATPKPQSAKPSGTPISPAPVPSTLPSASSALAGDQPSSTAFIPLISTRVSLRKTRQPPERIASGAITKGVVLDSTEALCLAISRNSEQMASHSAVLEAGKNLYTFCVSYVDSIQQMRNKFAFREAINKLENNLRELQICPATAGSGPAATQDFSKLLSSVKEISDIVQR
TAOK3, sequence (Q9H2K8 whole entry): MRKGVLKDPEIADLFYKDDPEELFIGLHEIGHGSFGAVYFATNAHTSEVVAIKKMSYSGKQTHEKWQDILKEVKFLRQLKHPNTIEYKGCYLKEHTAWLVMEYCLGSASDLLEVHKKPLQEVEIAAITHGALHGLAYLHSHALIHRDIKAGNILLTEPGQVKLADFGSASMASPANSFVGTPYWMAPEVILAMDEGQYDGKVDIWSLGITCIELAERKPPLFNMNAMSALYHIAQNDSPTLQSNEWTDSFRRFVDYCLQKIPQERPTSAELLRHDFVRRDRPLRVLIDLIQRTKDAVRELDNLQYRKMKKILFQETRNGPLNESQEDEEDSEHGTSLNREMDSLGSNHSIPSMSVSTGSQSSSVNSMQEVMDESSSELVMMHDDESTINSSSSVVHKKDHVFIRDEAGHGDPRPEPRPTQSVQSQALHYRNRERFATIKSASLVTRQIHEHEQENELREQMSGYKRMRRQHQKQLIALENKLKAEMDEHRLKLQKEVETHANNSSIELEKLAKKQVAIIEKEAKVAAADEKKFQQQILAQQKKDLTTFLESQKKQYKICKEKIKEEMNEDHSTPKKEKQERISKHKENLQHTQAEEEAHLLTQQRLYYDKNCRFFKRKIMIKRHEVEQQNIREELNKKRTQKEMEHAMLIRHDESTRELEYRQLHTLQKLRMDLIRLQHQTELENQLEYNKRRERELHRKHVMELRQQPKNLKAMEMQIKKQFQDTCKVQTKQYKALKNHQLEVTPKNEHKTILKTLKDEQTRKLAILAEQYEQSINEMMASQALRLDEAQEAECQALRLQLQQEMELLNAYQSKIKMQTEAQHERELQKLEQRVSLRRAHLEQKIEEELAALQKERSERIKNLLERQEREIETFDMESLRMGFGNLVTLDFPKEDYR

## Cc1ccc(NC(=O)c2cccc(C(F)(F)F)c2)cc1Nc1cc(-c2cccnc2)nc2[nH]ccc12 [HZX-02-059]
[1]
  remaining binding at 1 µM: 55%
ANKK1
  remaining binding at 1 µM: 99%
AXL
  remaining binding at 1 µM: 90%
CAMK1
  remaining binding at 1 µM: 100%
CAMKK1
  remaining binding at 1 µM: 97%
CIT
  remaining binding at 1 µM: 64%
CLK1
  remaining binding at 1 µM: 96%
CSNK2A1
  remaining binding at 1 µM: 81%
FER
  remaining binding at 1 µM: 77%
FGFR1
  remaining binding at 1 µM: 93%
IRAK4
  remaining binding at 1 µM: 100%
JNK3
  remaining binding at 1 µM: 96%
MST2
  remaining binding at 1 µM: 97%
NDR2
  remaining binding at 1 µM: 94%
NEK1
  remaining binding at 1 µM: 78%
PDPK1
  remaining binding at 1 µM: 89%
PKN1
  remaining binding at 1 µM: 93%
PKN2
  remaining binding at 1 µM: 100%
TAK1
  remaining binding at 1 µM: 73%
TAOK3
  remaining binding at 1 µM: 100%
TIE2
  remaining binding at 1 µM: 66%
TNK1
  remaining binding at 1 µM: 91%
TRKA
  remaining binding at 1 µM: 100%
WEE1
  remaining binding at 1 µM: 95%
